Measured values published in article PMC3313020 (Cancer Chemotherapy and Pharmacology, 2011).
Where “and” joins values, the source holds several entries; their conditions need not be identical. Identical values can stand only once. Like-named read-outs stand apart in the source and are kept apart here.

Assays:
[1] = single-agent enzastaurin 525 mg orally daily; cited from earlier work
[2] = Steady-state plasma pharmacokinetics; assay type: in vivo, human
metastatic NSCLC = conditions: single agent, second- or third-line; cited from earlier work
advanced NSCLC = advanced NSCLC progressed after first-line chemotherapy; cited from earlier work
NSCLC = conditions: cited from earlier work
[3] = 150 mg erlotinib daily with 250 mg enzastaurin, geometric mean (CV%), n 3
[4] = 150 mg erlotinib daily with 500 mg enzastaurin, geometric mean (CV%), n 11

Row | SMILES | AUCτ,ss [1] | CLss/F [1] [L/h] | C av,ss ([2]; enzastaurin 500 mg once daily with erlotinib 150 mg daily, geometric mean (CV%), N 12) | Tmax ([2]; human, plasma, oral) [h] | AUC ([2]; human, plasma, oral, AUCτ,ss, enzastaurin 500 mg once daily with erlotinib 150 mg daily, geometric mean (CV%), N 12) [µM·h] | Cmax ([2]; human, plasma, oral, C max,ss, enzastaurin 500 mg once daily with erlotinib 150 mg daily, geometric mean (CV%), N 12) [nM] | patients with prolonged stabilization >6 months (metastatic NSCLC) [%] | overall response rate (advanced NSCLC) [%] | hazard ratio (overall survival vs placebo) (NSCLC; P < 0.001) | response rate (NSCLC; unselected population, vs placebo <1%, P < 0.001) [%] | overall survival (NSCLC; vs placebo 4.7 months) [months] | C av,ss [2, 3] | CLss/F [2, 3] | C av,ss [2, 4] | CLss/F [2, 4]
1 | Cn1cc(C2=C(c3cn(C4CCN(Cc5ccccn5)CC4)c4ccccc34)C(=O)NC2=O)c2ccccc21 [Enzastaurin] | 23,600 nmol × h/L | 40.3 | 750 (71) nmol/L | 4.04 | 18 | 1600 | 11 |  |  |  |  |  |  |  | 
2 | C#Cc1cccc(Nc2ncnc3cc(OCCOC)c(OCCOC)cc23)c1 [erlotinib] |  |  |  |  |  |  |  | 6.2 | 0.70 | 8.9 | 6.7 | 1,030 (19) ng/mL | 6.07 L/h and 6.07 (19) L/h | 1,090 (45) ng/mL | 5.75 L/h and 5.75 (45) L/h
